Common to all, as to format: functional
In assay [1] the test system is Escherichia coli. The assay can be described thus: Antibacterial activity Escherichia coli ATCC 25922 assessed as inhibition of bacterial growth incubated for 24 hrs by Muller hinton broth based dilution assay.
Assay [2] relates to Pseudomonas aeruginosa. The assay can be described thus: Antibacterial activity Pseudomonas aeruginosa ATCC 9027 assessed as inhibition of bacterial growth incubated for 24 hrs in the presence of 12.5 ug/mL Zn2+ by Muller hinton broth based dilution assay.
The subject of assay [3] is Staphylococcus aureus. The assay can be described thus: Antibacterial activity against Staphylococcus aureus ATCC 29213 assessed as inhibition of bacterial growth incubated for 24 hrs by Muller hinton broth based dilution assay.
For assay [4], the system named is Acinetobacter baumannii. Put plainly: Antibacterial activity against Acinetobacter baumannii ATCC 17978 assessed as inhIbition of bacterial growth incubated for 24 hrs by Muller hinton broth based dilution assay.
In assay [5] the test system is Staphylococcus aureus. The assay can be described thus: Antibacterial activity against Staphylococcus aureus ATCC 29213 assessed as inhibition of bacterial growth incubated for 24 hrs in the presence of 12.5 ug/mL Zn2+ by Muller hinton broth based dilution assay.
Assay [6] deals with Staphylococcus aureus. The assay can be described thus: Antibacterial activity against Methicillin-resistant Staphylococcus aureus NCTC10442 assessed as inhibition of bacterial growth incubated for 24 hrs in the presence of 12.5 ug/mL Zn2+ by Muller hinton broth based dilution assay.
For assay [7], the system named is Staphylococcus aureus. The assay can be described thus: Antibacterial activity against Methicillin-resistant Staphylococcus aureus N315 assessed as inhibition of bacterial growth incubated for 24 hrs by Muller hinton broth based dilution assay.
Assay [8] relates to Staphylococcus aureus. The assay can be described thus: Antibacterial activity against Methicillin-resistant Staphylococcus aureus N315 assessed as inhibition of bacterial growth incubated for 24 hrs in the presence of 12.5 ug/mL Zn2+ by Muller hinton broth based dilution assay.
Assay [9] has as its system Staphylococcus aureus. The assay can be described thus: Antibacterial activity against Staphylococcus aureus ATCC 29213 in cyclophosphamide immunosuppressed C57BL/6 mouse model of bacterial keratitis assessed as log reduction in viable bacterial count in infected cornea at 5 % pre-infected with bacteria for 24 hrs followed by topical administration of compound four times a day for 3 days. Conditions: route top, time 3 day.

Assay [10] concerns Staphylococcus aureus. The assay can be described thus: Antibacterial activity against Methicillin-resistant Staphylococcus aureus NCTC10442 assessed as inhibition of bacterial growth incubated for 24 hrs by Muller hinton broth based dilution assay.
The subject of assay [11] is Acinetobacter baumannii. Put plainly: Antibacterial activity against Acinetobacter baumannii R2889 assessed as inhIbition of bacterial growth incubated for 24 hrs in the presence of 12.5 ug/mL Zn2+ by Muller hinton broth based dilution assay.
In assay [12] the test system is Acinetobacter baumannii. Put plainly: Antibacterial activity against Acinetobacter baumannii ATCC 17978 assessed as inhIbition of bacterial growth incubated for 24 hrs in the presence of 12.5 ug/mL Zn2+ by Muller hinton broth based dilution assay.
Assay [13] concerns Pseudomonas aeruginosa. The assay can be described thus: Antibacterial activity Pseudomonas aeruginosa ATCC 9027 assessed as inhibition of bacterial growth incubated for 24 hrs by Muller hinton broth based dilution assay.
Assay [14] has as its system Acinetobacter baumannii. Put plainly: Antibacterial activity against Acinetobacter baumannii R2889 assessed as inhIbition of bacterial growth incubated for 24 hrs by Muller hinton broth based dilution assay.
For assay [15], the system named is Escherichia coli. The assay can be described thus: Antibacterial activity Escherichia coli ATCC 25922 assessed as inhibition of bacterial growth incubated for 24 hrs in the presence of 12.5 ug/mL Zn2+ by Muller hinton broth based dilution assay.

Molecules are shown by their SMILES. ≈ marks a conversion by molar mass, not a printed value.

As usually defined, the MIC is the smallest concentration in the dilution series that meets the test's criterion for growth inhibition. In the case of `CN[C@H](CC(C)C)C(=O)N[C@H]1C(=O)N[C@@H](CC(N)=O)C(=O)N[C@H]2C(=O)N[C@H]3C(=O)N[C@H](C(=O)N[C@H](C(=O)O)c4cc(O)cc(O)c4-c4cc3ccc4O)[C@H](O)c3ccc(c(Cl)c3)Oc3cc2cc(c3O[C@@H]2O[C@H](CO)[C@@H](O)[C@H](O)[C@H]2O[C@H]2C[C@](C)(N)[C@H](O)[C@H](C)O2)Oc2ccc(cc2Cl)[C@H]1O` [VANCOMYCIN], the minimum inhibitory concentration (MIC) was > 50 µg/mL in the assay with Escherichia coli [1]; > 50 µg/mL with Pseudomonas aeruginosa [2]; 0.78 µg/mL (≈ 0.538 µM) in the assay on Staphylococcus aureus [3]; 50 µg/mL (≈ 34.5 µM) in the assay with Acinetobacter baumannii [4]; 0.78 µg/mL with Staphylococcus aureus [5]; 1.56 µg/mL in the assay with Staphylococcus aureus [6]. Also, the MIC with Staphylococcus aureus [7] was 1.56 µg/mL (≈ 1.08 µM); in the assay with Staphylococcus aureus [8] it was 1.56 µg/mL; with Staphylococcus aureus [10] it was 1.56 µg/mL (≈ 1.08 µM); in the assay with Acinetobacter baumannii [11], > 50 µg/mL; with Acinetobacter baumannii [12], 50 µg/mL; with Pseudomonas aeruginosa [13], > 50 µg/mL. Also, the minimum inhibitory concentration (MIC) in the assay on Acinetobacter baumannii [14] and in the assay with Escherichia coli [15] was > 50 µg/mL each time. In addition, in the assay on Staphylococcus aureus [9], the “log(activity)” value was found to be 5.4.

For the origin of these results see ChEMBL document CHEMBL5214910, “Rational Design of Dipicolylamine-Containing Carbazole Amphiphiles Combined with Zn2+ as Potent Broad-Spectrum Antibacterial Agents with a Membrane-Disruptive Mechanism” (J Med Chem, 2021).
